What was measured:
Format in all cases: in vivo
[1] = tested on: Honghuadajinyuan tobacco; test: Spraying the quercetin plant senescence accelerator onto common tobacco in fields; conditions: 10 μmol/L; attached leaves of tobacco; FIG. 5B
Text: Experimental test 5: Effects of spraying the quercetin plant senescence accelerator onto common tobacco in fields It could be found from the experimental test 4 that 10 μmol/L was the optimal concentration of the quercetin plant senescence accelerator to accelerate mature and yellowing of tobacco leaves. Further, Honghuadajinyuan tobacco was sprayed with the quercetin plant senescence accelerator finished product, and the accelerating effect of the accelerator on the senescence of plant leaves was observed. The specific results were shown in FIGS. 5A-5D, and the experimental groups and their results were described below. The quercetin plant senescence accelerator having a concentration of 0 (the control group) and the quercetin plant senescence accelerator having a concentration of 10 μmol/L were sprayed onto living plants of common tobacco.

[2] = tested on: living plants of Arabidopsis thaliana; test: Spraying the quercetin plant senescence accelerator onto living plants of Arabidopsis thaliana; conditions: attached leaves sprayed at 10 and 20 μmol/L; FIG. 3B
Text: Experimental test 3: Effects of spraying the quercetin plant senescence accelerator onto living plants of Arabidopsis thaliana Living plants of Arabidopsis thaliana were sprayed with the quercetin plant senescence accelerator finished products prepared by the preparation method provided in one of Embodiments 1-3 of the present application, and the accelerating effect of the accelerator on the senescence of plant leaves was observed. The specific results were shown in FIGS. 3A-3C, and the experimental groups and their results were described below. Experimental group: living plants of Arabidopsis thaliana were sprayed with the quercetin plant senescence accelerators with concentrations of 10 μmol/L and 20 μmol/L in Embodiment 2, respectively. Control group: living plants Arabidopsis thaliana were sprayed with the 1/2 MS solution of 2-(N-morpholino)ethanesulfonic acid in which the concentration of 2-(N-morpholino)ethanesulfonic acid was 3 mmol/L.

[3] = tested on: living plants of Nicotiana benthamiana; test: Spraying the quercetin plant senescence accelerator onto attached leaves of Nicotiana benthamiana; conditions: attached leaves sprayed at 1, 10 and 20 μmol/L; FIG. 4B
Text: Experimental test 4: Effects of spraying the quercetin plant senescence accelerator onto attached leaves of Nicotiana benthamiana Living plants of Nicotiana benthamiana were sprayed with the quercetin plant senescence accelerator finished product in Embodiment 3, and the accelerating effect of the accelerator on the senescence of plant leaves was observed. The specific results were shown in FIGS. 4A-4C, and the experimental groups and their results were described below. Experimental group: living plants of Nicotiana benthamiana were sprayed with the quercetin plant senescence accelerators having concentrations of 1 μmol/L, 10 μmol/L and 20 μmol/L, respectively. Control group: living plants of Nicotiana benthamiana were sprayed with the 1/2 MS solution of 2-(N-morpholino)ethanesulfonic acid in which the concentration of 2-(N-morpholino)ethanesulfonic acid was 2.9 mmol/L.

Measured: content of chlorophyll in leaves

O=c1c(O)c(-c2ccc(O)c(O)c2)oc2cc(O)cc(O)c12 [quercetin]
significantly reduced: all assays above

From patent US20210321612A1, “USE OF QUERCETIN IN PLANT AGING PROMOTER” (TOBACCO RESEARCH INSTITUTE OF CHINESE ACADEMY OF …, priority 2019, published 2021)
